Assay results published in patent publication US4496568A, “Antiinflammatory thieno [2,3-c]pyridine derivatives” (PACOR, priority 1977, dated 1985).

Columns and labels:
Type in all cases: in vivo
[1] = tested on: localized carrageenin-induced edema; assay: Localized carrageenin-induced edema (anti-inflammatory activity); settings: rats, 100 mg/kg orally 1 hour before, at, and 1 and 2.5 hours after carrageenin, vs reference group
Method: (§1) The pharmacological investigation concerned the anti-inflammatory activity of the compounds of this invention. This activity was investigated according to 2 methods:
(a) Method of localized carrageenin-induced edema
An 1% (0.1 ml) carrageenin solution is injected in the metatarsal flexor muscles of the right hind limb of rats at time 0. The animals of the treated group are additionally administered orally 100 mg/kg body weight of the test derivative, respectively 1 hour prior to injection of the phlogogenic agent, simultaneously with said injection, and then 1 and 2.5 hours thereafter. The determinations effected with a ROCH micrometer at times 0, 1 hour 2 hrs, 3 hrs and 5 hrs after carrageenin administration provide a measure, as a function of time, of the percent anti-inflammatoryactivity, with respect to the reference group.

[2] = tested on: ovalbumin-induced systemic edema; assay: Ovalbumin-induced systemic edema (anti-inflammatory activity); settings: rats, 100 mg/kg orally 1 hour before and simultaneously with ovalbumin, vs reference group
Method: as §1
(b) Method of the ovalbumin-induced systemic edema
A simultaneous intraperitoneal injection of 1 ml ovalbumin and 0,5 ml of 1% aqueous Evans blue solution is effected in rats. On the other hand, the animals of the treated group are orally administered 100 mg/kg body weight of the test derivative, 1 hour prior to ovalbumin administration and simultaneously therewith. The intensity of the phenomenon thus induced is rated according to a scale from 1 to 5, according to the progress of the inflammatory syndrome. Thus are determined, as a function of time, the mean intensity of the edema and the percent decrease of the edema reaction with respect to the reference group.

mice = assay: Acute intravenous toxicity LD50

SMILES	Percent anti-inflammatory activity after 1 hr [1] [%]	Percent anti-inflammatory activity after 2 hrs [1] [%]	Percent anti-inflammatory activity after 3 hrs [1] [%]	Percent anti-inflammatory activity after 5 hrs [1] [%]	Percent anti-inflammatory activity after 2 hrs [2] [%]	Percent anti-inflammatory activity after 3 hrs [2] [%]	LD50 (mice) [mg]
Cc1cc2c(O)cncc2s1 [Derivative No. 4, 4-hydroxy-2-methyl-thieno[2,3-c]pyridine]	45	49	50	52	48	60	–
Oc1cncc2sccc12 [Derivative No. 2, 4-hydroxy-thieno[2,3-c]pyridine]	40	45	49	49	49	58	–
Oc1cncc2ccsc12 [Derivative No. 1, 7-hydroxy-thieno[3,2-c]pyridine]	43	46	48	49	44	50	131
Cc1ncc(O)c2ccsc12 [Derivative No. 3, 4-hydroxy-7-methyl-thieno[2,3-c]pyridine]	42	48	52	51	53	61	–
